# Assay results: US20120277265A1, “NOVEL POLYQUINOLINE DERIVATIVES AND THE THERAPEUTIC USE THEREOF” (CENTRE NATIONAL DE LA RECHERCHE SCIENTIFIQUE (C.N.R.S.), priority 2005, published 2012)
# Legend:
# [1] = Stability constants of competing chelators for Cu(II) (NIST / Sillen-Martell; log Kapp by Eq. 1-2); assay type: binding; conditions: at pH = 7.4, by Eq. 1 and 2
# Description: Department of Commerce) and […]
# [2] = 25° C., cited from earlier work; for log K1 (stability constant for the MLc species), Cu(II): ionic strength 0.1-0.2, metal ion to chelator 1/1; for log K2 (stability constant for the M(Lc)2 species), Cu(II): ionic strength 0.1-0.2
# [3] = Stability constants of competing chelators for Zn(II) (NIST / Sillen-Martell; log Kapp by Eq. 1-2); conditions: for log K1 app, Zn(II): at pH = 7.4, by Eq. 1 and 2; for log Kapp of comparison chelators for Zn(II): comparison chelators of b563
# Description: log Kapp=log K-log α (Eq. 1)
# α=[H^+]^n/(Ka1×Ka2×Ka3× . . . Kan)+[H^+]^n-1/(Ka1×Ka2×Ka3× . . . Kan-1)+ . . . +[H^+]/Ka1+1 (Eq. 2)
# [4] = 25° C., cited from earlier work; for log K1 (stability constant for the MLc species), Zn(II): ionic strength 0.1-0.2, metal ion to chelator 1/1
# [5] = Number of ZnCl2 equivalents for the ligand to be entirely in the form of Zn(II) complex; assay type: binding; conditions: competition with the tris buffer and the DMSO
# [6] = target: T1, copper complexes of Aβ1-42 peptide (Homo sapiens, UniProt P05067); assay: Hydrogen peroxide produced by Aβ1-42 in the presence of CuCl2, ascorbate, air and ligand (Amplex Red H2O2/HRP); assay type: biochemical
# T1 construct: The β-amyloid peptide Aβ1-42 (Aβ1-42) was synthesised, purified (to a purity greater than 95%); made in house; host or cells: chemical peptide synthesis (no expression host)
# T1 sequence (P05067 672-713 limits assumed, one chain of several): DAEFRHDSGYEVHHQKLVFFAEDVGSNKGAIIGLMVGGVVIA
# [7] = as above; assay type: biochemical; conditions: ligand 1 eq/Cu(II) (0.4 μM); CuCl2 0.4 μM, ascorbate 10 μM, air
# [8] = UV-visible spectrophotometric titration with ZnCl2 (metal/ligand stoichiometry); assay type: binding; conditions: 15 μM ligand; Tris-HCl buffer pH 7.4/organic solvent, per ligand as in Table 3 column Solvent
# Experimental: (§1) An organic solvent (CH3OH, dioxane or DMSO) was added in order to achieve good solubility of the ligands and metal complexes in the concentrations used in these experiments. Exact proportions of the organic solvent/buffer mixture are specified for each UV-visible characterisation of the different ligands or metal complexes.
# (§2) Aliquot portions of concentrated CuCl2 or ZnCl2 solutions (M) are added to a 15 μM ligand solution so as to induce only negligible variations in volume. After each addition, changes in absorption spectra are observed immediately and are consistent between two additions, which corresponds to a rapid complexing process. The exact absorption values relating to each ligand and the copper(II) or zinc(II) complexes thereof are detailed hereinafter in the Experimental part (in the Synthesis part for ligands and hereinafter for the metal complexes).
# (§3) The stoichiometry of the different ligands (L) for Cu(II) or ZN(II) have therefore been determined spectrophotometrically by metal ion titration. In this example, for an M/L ratio increasing from 0 to 1, π→π* with transition, centred at 251 nm for the free ligand, is shifted to a lower energy with a concomitant appearance of an absorption band in the visible region of the spectrum (λmax to 383 nm), which is probably the result of an MLCT transition. For greater M/L ratios, no additional change in the UV-visible absorption spectra is observed.
# [9] = UV-visible spectrophotometric titration with CuCl2 (metal/ligand stoichiometry); assay type: binding; conditions: 15 μM ligand; Tris-HCl buffer pH 7.4/organic solvent, per ligand as in Table 3 column Solvent
# Experimental: as §1, §2, §3
# Aβ1-42 = target: T2, Aβ1-42 (Homo sapiens, UniProt P05067); assay: Inhibition of the precipitation of Aβ1-42 by the addition of ligand (Micro BCA assay of soluble/aggregated peptide); assay type: biochemical; conditions: Aβ1-42 5 μM, pH 7.4
# T2 construct: The β-amyloid peptide Aβ1-42 (Aβ1-42) was synthesised, purified (to a purity greater than 95%); made in house; host or cells: chemical peptide synthesis (no expression host)
# T2 sequence (P05067 672-713): as the sequence (P05067 672-713 limits assumed, one chain of several) above
# Method in brief: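 Aβ1-42 (5 μM) pre-aggregated 1 h at 37 °C with stirring in 20 mM Tris-HCl/150 mM NaCl pH 7.4, with or without CuCl2, ZnCl2 or FeCl3 (20 μM). Ligand (200 μM, DMSO) added, 1 further hour at 37 °C; after centrifugation, peptide in supernatant and pellet quantified by Micro BCA against BSA standards.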
# [10] = Competition reaction between ligand (Ls), CuCl2 and competing chelator (Lc), UV-visible; affinity constants
# Experimental: An organic solvent (CH3OH, dioxane or DMSO) was added in order to achieve good solubility of all the ligands and metal complexes in the concentrations used in these experiments. Monitoring has shown that all the ligands and metal complexes examined yield results corresponding to the Beer-Lambert Law in the experimental conditions used.
# Lc competing chelators were selected to provide a range of stability constants for the metal ion M presenting intervals of approximately one or two log units, as well as to make it possible for each competition experiment to quantify one of the Ls, MLs, Lcc or MLc species with a UV-vis spectrum wavelength without contaminating the three other species (FIG. 7). […] As the concentration [MLs]=x % of C is measured on the UV-visible spectra, the concentrations [Ls]=(1−x) % of C, [MLc]=(1−x) % of C and [Lc]=x % of C can be deduced therefrom and:
# [11] = Competition reaction between ligand (Ls), ZnCl2 and competing chelator (Lc), UV-visible; affinity constants; assay type: binding; conditions: Ls/ZnCl2/Lc 1/1/1 at 15 μM; solvent per ligand as in Table 3
# Experimental: An organic solvent (CH3OH, dioxane or DMSO) was added in order to achieve good solubility of all the ligands and metal complexes in the concentrations used in these experiments.
# As the concentration [MLs]=x % of C is measured on the UV-visible spectra, the concentrations [Ls]=(1−x) % of C, [MLc]=(1−x) % of C and [Lc]=x % of C can be deduced therefrom and:
# In these conditions, [MLs]=[MLc]; [MLs]+[Lc]=Y, y≧50 and:
# When log Ks 6, these equations are not used since the percentages of metal ion which is free in the solution or chelated by the solvent or the buffer are not negligible.
# [12] = Determination of log D7.4 (1-octanol / Tris-HCl buffer); assay type: physicochemical; conditions: 1-octanol / 20 mM Tris-HCl buffer containing 150 mM NaCl (pH = 7.4) (1/1, v/v)
# Method in brief: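 Ligand partitioned between 1-octanol and 20 mM Tris-HCl pH 7.4 with 150 mM NaCl: vortexed 3 min at ambient temperature, centrifuged, each phase quantified by UV-visible spectrophotometry. log D7.4 is log of octanol/buffer concentration ratio, measured three times.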
# [13] = ligand 1 eq/Cu(II) (0.4 μM), CuCl2 0.4 μM, ascorbate 10 μM, air
compound,measurement,setting,value
"O=C(O)CN(CCO)CC(=O)O [HIDA, N-(2-hydroethyl)iminodiacetic acid]","log K1 app, Cu(II)",[1],10.5
same,"log K1 (stability constant for the MLc species), Cu(II)",[2],11.8
"NCCNCCNCCN [Trien, triethylenetetramine]","log K1 app, Zn(II)",[3],7.8
same,"log K1 (stability constant for the MLc species), Zn(II)",[4],11.9
"O=C(O)CN(CC(=O)O)CC(=O)O [NTA, nitrilotriacetic acid]","log K1 app, Zn(II)",[3],8.0
same,"log K1 (stability constant for the MLc species), Zn(II)",[4],10.5
same,"log K2 (stability constant for the M(Lc)2 species), Zn(II)",[4]; ionic strength 0.1-0.2,3.8
"c1ccc(-c2ccccn2)nc1 [biPy, 2,2′-bipyridine]","log K1 app, Cu(II)",[1],8.1
same,number of ZnCl2 equivalent for 15 μM of ligand to be entirely in the form of Zn(II) complex,[5],250 eq ZnCl2
same,log Kapp of comparison chelators for Zn(II),[3],≈ 5
same,"log K1 (stability constant for the MLc species), Cu(II)",[2],8.1
same,"log K2 (stability constant for the M(Lc)2 species), Cu(II)",[2],5.5
"Oc1cccc2ccc(CCc3ccc4cccc(O)c4n3)nc12 [Compound 7, 2,2′-(1,2-Ethanediyl)-bis(8-hydroxyquinoline)]",H2O2 production as a function of the Cu/Aβ1-42 ratio,"[6]; FIG. 11, 1 equivalent of ligand per Cu(II) (0.4 μM), Aβ1-42 0.2 to 0.53 μM",virtually inhibit H2O2 production
same,"amount of H2O2, 0.2 μM Aβ1-42 Cu/Aβ = 2",[6]; [13],0.89 ± 0.07 nmol
same,"amount of H2O2, 0.5 μM Aβ1-42 Cu/Aβ = 0.75",[6]; [13],0.68 nmol
same,"amount of H2O2, without Aβ1-42",[7],0.75 nmol
same,Complex observed by titration with Zn^II (observed L/Zn(II) stoichiometry),[8],LZn^II(1/1)
same,Complex observed by titration with Cu^II (observed L/Cu(II) stoichiometry),[9],LCu^II(1/1)
same,CuCl2 % soluble Aβ,"Aβ1-42; 20 μM CuCl2, 1 h 37° C. then 1 h with 200 μM ligand",35%
same,FeCl3 % soluble Aβ,"Aβ1-42; 20 μM FeCl3, 1 h 37° C. then 1 h with 200 μM ligand",40%
same,ZnCl2 % soluble Aβ,"Aβ1-42; 20 μM ZnCl2, 1 h 37° C. then 1 h with 200 μM ligand",60%
same,without metal % soluble Aβ,"Aβ1-42; no metal salt, 1 h 37° C. then 1 h with 200 μM ligand",59%
same,"percentage of the CuLs species at equilibrium, competing ligand EDTA","[10]; Ls/CuCl2/Lc 1/1/1 at 15 μM, solvent per ligand as in Table 3",55%
same,"number of Lc equivalents making it possible to form 50% of CuLs, Lc = EDTA","[10]; mixture of Ls (15 μM, 1 equivalent) and CuCl2 (1/1, mol/mol)",1.1 eq
same,"percentage of ZnLs species at equilibrium, competing ligand EDTA",[11],55%
same,logD at 3 min,[12],3.5 ± 0.1
"c1cnc2c(c1)ccc1cccnc12 [1,10-phenanthroline]",number of ZnCl2 equivalent for 15 μM of ligand to be entirely in the form of Zn(II) complex,[5],50 eq ZnCl2
same,log Kapp of comparison chelators for Zn(II),[3],6.3
"NCCNCCN [Dien, diethylenetriamine]","log K1 app, Cu(II)",[1],11.8
same,"log K2 (stability constant for the M(Lc)2 species), Cu(II)",[2],5.0
"NCCN [EDA, ethylenediamine]","log K1 app, Cu(II)",[1],7.8
same,"log K2 (stability constant for the M(Lc)2 species), Cu(II)",[2],9.1
"O=C(O)CN(CCOCCOCCN(CC(=O)O)CC(=O)O)CC(=O)O [EGTA, ethylenebis(oxyethylenenitrilo)-tetraacetic acid]","log K1 app, Zn(II)",[3],9.4
